The results in this text go back to paper PMC10997663, “Mechano-sensitivity of β2-adrenoceptors enhances constitutive activation of cAMP generation that is inhibited by inverse agonists” (Communications Biology, 2024).

The subject of experiment [1] is β2-adrenoceptor (β2AR). The experiment can be described thus: cells. The conditions noted are these: HEK293G, read-out: % of control remaining. More on the design: species or system HEK293G overexpressing TS-SNAP-β2AR; GloSensor cAMP luminescence; inverse agonist inhibition of the peak basal (mechanically stimulated) response. The protocol:
(§1) Four inverse agonists were evaluated as inhibitors of the basal GloSensor^TM response in HEK293G cells overexpressing the TS-SNAP-β2AR (Fig. 3). […] Each inverse agonist was added immediately following an initial luminescence read at time zero. The plate therefore entered the PheraStar at time zero, was then removed for the addition of inverse agonist or HBSS and measurements were made again at t = 1 min and every minute thereafter. Values are mean ± SEM of five independent experiments.

Experiment [2] relates to β2-adrenoceptor (β2AR). The experiment can be described thus: cells. Also on record: species or system HEK293G overexpressing TS-SNAP-β2AR; GloSensor cAMP luminescence; inverse agonist inhibition of the peak basal (mechanically stimulated) response. Conditions: HEK293G, read-out: % of control remaining. The protocol: as §1
This is another data set of the same source.

Experiment [3] addresses T1, β2-adrenoceptor (β2AR) (Homo sapiens, UniProt P07550).
T1 construct: gene ADRB2; HiBiT-β2AR (N-terminal HiBiT tag), complemented with LgBiT
The experiment can be described thus: NanoBRET saturation binding in live HEK293G cells. Type of experiment: cell-based. For orientation: In BRET a luciferase serves as donor, and the signal depends on an acceptor being close.

Each structure is given as a SMILES string. Where two headings read alike, the source gives them in different places.

T1 sequence (P07550 whole entry): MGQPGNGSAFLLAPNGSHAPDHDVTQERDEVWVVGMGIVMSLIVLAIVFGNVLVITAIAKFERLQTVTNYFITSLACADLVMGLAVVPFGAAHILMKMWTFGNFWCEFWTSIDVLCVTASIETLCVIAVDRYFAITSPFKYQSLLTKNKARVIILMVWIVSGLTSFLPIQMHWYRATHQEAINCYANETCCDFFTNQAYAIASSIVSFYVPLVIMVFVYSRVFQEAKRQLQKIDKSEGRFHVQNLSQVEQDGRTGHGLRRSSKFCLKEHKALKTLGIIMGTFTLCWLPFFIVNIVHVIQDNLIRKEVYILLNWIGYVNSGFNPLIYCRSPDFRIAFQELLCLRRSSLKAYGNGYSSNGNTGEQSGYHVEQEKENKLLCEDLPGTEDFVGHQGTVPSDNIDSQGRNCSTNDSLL

For the molecule `COc1ccccc1OCCNCC(O)COc1cccc2[nH]c3ccccc3c12` (stereo not drawn) [carvedilol], the activity at 10 µM is 41.1 ± 4.32% in the experiment on β2-adrenoceptor (β2AR) [1] and 54 ± 10.6% in the experiment with β2-adrenoceptor (β2AR) [2].

As a reminder, the Kd is a measure of binding affinity in units of concentration. A lower Kd goes with tighter binding. `Cc1ccc(OCC(O)C(C)NCCNC(=O)CCNC(=O)CCNC(=O)CCCCCNC(=O)COc2ccc(C=CC3=[N+]4C(=Cc5ccc(-c6cccs6)n5[B-]4(F)F)C=C3)cc2)c2c1CCC2` (stereo not drawn) [ICI-118551-βAla-βAla-BODIPY-X-630/650] showed a Kd at β2-adrenoceptor (β2AR) [3] of 0.0326 ± 0.00742 µM.
